Test results as given in US6291485A, “4,5-dihydro-[1H]-benz[g]indazole-3-carboxylic acid derivatives” (Teikoku Hormone Mfg. Co., Ltd., priority 1997, dated 2001).
pIC50: −log10 of the molar value.

Assays:
ETA receptor = target: T1, ETA receptor (Sus scrofa, UniProt Q29010); assay: binding of 125I-ET-1 to crude receptor membrane fraction from the porcine thoracic aorta (ETA); conditions: porcine thoracic aorta membranes, 125I-ET-1, 25° C., 120 minutes, pH 7.0
T1 construct: crude receptor membrane fraction from the porcine thoracic aorta; from tissue; host or cells: porcine thoracic aorta, crude membrane fraction
T1 sequence (Q29010 21-427): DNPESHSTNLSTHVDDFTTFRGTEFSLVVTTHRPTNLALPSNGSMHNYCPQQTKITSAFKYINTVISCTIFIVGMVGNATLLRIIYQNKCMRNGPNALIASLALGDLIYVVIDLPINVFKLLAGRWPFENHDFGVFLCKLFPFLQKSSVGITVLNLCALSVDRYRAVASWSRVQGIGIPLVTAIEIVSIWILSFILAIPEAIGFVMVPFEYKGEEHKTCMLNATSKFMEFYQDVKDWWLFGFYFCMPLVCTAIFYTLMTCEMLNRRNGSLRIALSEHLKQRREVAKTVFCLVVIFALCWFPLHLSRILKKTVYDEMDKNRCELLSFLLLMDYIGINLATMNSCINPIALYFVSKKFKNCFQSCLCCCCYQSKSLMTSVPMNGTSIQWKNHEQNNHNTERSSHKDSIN
Description: (§1) (1) Measurement of Antagonism to Endothelin Receptors
(§2) Among the endothelin (ET) receptor subtypes, the binding of ET to the ETA and ETB subtypes was measured by using a crude receptor membrane fraction from the porcine thoracic aorta and a crude receptor membrane fraction from the human placenta, respectively. The tissue (about 40 g) as washed, minced with scissors, and homogenized in 4 volumes of solution A [20 mM HEPES (N-2-hydroxyethylpiperazine-N'-2-ethanesulfonic acid), 3 mM EGTA (ethylene glycol bis(β-aminoethyl ether)-N,N,N',N'-tetraacetic acid), 5 mM EDTA (ethylenediaminetetraacetic acid), 2 μg/ml aprotinin, 3 μg/ml leupeptin, 3 μg/ml pepstatin A, 0.25 mg/ml bacitracin, 0.25 M sucrose] by means of an Ultra-turrax. The resulting homogenate was centrifuged at 8,000 g for 20 minutes, and the supernatant was further centrifuged at 80,000 g for 60 minutes. The precipitate was suspended in solution A and used as a crude receptor membrane fraction, which was divided into portions and stored in a frozen state at -70° C. As a radioligand, 325 Bq of ^125 I-ET-1 (81.4 TBq/mmol; manufactured by DuPont-New England Nuclear, Boston, Mss., U.S.A) was placed in a test tube. Then, the crude receptor membrane fraction (20 μg as protein) and a test compound were added thereto. Nonspecific binding was measured by the addition of 125 nM ET-1. The reaction was carried out in solution B [30 mM HEPES, 0.15 M NaCl, 5 mM MgCl2, 0.5 mg/ml bacitracin, 1 mg/ml bovine serum albumin, pH 7.0) at 25° C. for 120 minutes. In order to separate the free radioactive ligand from the membrane-bound one, the reaction mixture was quickly filtered through a glass filter treated with 0.3% polyethylene-imine (GF/C; manufactured by Whatman Inc., U.S.A.) and washed twice with ice-cold solution B. Thereafter, the radioactivity remaining on the filter was measured with a gamma counter.

ETB receptor = target: T2, ETB receptor (Homo sapiens, UniProt P24530); assay: binding of 125I-ET-1 to crude receptor membrane fraction from the human placenta (ETB); conditions: human placenta membranes, 125I-ET-1, 25° C., 120 minutes, pH 7.0
T2 construct: a crude receptor membrane fraction from the human placenta; from tissue; host or cells: human placenta, crude membrane fraction
T2 sequence (P24530 27-442): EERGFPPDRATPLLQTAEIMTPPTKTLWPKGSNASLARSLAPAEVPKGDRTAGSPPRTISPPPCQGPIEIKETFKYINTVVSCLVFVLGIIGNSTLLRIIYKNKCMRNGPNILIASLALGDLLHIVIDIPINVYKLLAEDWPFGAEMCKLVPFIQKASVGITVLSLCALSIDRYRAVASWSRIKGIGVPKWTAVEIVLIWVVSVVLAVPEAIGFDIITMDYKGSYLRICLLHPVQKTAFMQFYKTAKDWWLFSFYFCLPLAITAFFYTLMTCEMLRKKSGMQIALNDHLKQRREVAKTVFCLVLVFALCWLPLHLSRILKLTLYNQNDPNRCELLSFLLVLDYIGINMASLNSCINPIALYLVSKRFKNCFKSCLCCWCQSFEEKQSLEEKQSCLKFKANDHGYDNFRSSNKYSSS
Description: as §1, §2

phosphodiesterase III = target: T3, phosphodiesterase III (Cavia porcellus, UniProt H0VIU9); assay: inhibitory effect on phosphodiesterase III ([3H] cAMP conversion, enzyme fraction from guinea pig hearts); format: biochemical; conditions: for pIC50: guinea pig heart enzyme, 0.1 μM [3H] cAMP, 30° C., 10 minutes, pH=8.0; for inhibitory effect on phosphodiesterase III: statement in words
T3 construct: hearts excised from male Hartley strain guinea pigs (400-600 g); from tissue; host or cells: guinea pig heart, 40,000 g supernatant, DEAE-cellulose fraction
T3 sequence (H0VIU9 1-1132): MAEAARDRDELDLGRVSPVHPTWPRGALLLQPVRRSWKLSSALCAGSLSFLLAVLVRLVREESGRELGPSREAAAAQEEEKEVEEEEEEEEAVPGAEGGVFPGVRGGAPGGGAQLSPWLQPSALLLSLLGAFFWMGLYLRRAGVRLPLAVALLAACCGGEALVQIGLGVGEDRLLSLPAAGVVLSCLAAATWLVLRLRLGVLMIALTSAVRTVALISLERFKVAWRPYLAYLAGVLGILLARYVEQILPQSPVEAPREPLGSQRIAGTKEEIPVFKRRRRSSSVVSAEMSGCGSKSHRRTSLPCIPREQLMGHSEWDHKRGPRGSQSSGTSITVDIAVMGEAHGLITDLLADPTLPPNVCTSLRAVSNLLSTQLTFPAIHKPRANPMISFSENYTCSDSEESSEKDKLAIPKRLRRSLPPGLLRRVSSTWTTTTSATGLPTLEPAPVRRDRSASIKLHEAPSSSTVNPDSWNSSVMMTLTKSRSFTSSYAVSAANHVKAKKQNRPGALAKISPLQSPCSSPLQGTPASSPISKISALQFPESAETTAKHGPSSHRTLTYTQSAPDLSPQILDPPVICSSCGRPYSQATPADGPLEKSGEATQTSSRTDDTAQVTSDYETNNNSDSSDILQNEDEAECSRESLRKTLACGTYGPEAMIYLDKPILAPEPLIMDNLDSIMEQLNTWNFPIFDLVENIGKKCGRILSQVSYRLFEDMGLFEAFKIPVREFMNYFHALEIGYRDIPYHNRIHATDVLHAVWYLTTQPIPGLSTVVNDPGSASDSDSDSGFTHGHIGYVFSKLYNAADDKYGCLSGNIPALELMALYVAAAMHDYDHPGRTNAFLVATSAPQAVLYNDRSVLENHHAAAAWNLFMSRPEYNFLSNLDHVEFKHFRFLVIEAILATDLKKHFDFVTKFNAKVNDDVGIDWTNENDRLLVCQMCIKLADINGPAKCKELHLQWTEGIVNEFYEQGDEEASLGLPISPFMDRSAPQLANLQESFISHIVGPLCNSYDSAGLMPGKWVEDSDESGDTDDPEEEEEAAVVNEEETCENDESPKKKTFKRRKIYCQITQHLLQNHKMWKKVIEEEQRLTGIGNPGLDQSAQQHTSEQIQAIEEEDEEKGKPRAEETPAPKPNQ
Description: Phosphodiesterase III was prepared according to the method of Frodsham et al. (Eur. J. Pharmacol., Vol. 211, pp. 383-391, 1992).
Specifically, hearts excised from male Hartley strain guinea pigs (400-600 g) were placed in 8 volumes of solution C [10 mM trishydroxymethyl)aminomethane-acetic acid buffer (pH=7.5), 2 mM magnesium chloride, 1 mM dithiothreitol, 2,000 units/ml aprotinin, 50 μM phenylmethylsulfonyl fluoride], minced with scissors, and homogenized three times for 10 seconds by means of a Polytron. The resulting homogenate was centrifuged at 40,000 g for 30 minutes, and the supernatant was applied onto a DEAE-cellulose column and eluted with a linear concentration gradient ranging from 0.2 M to 0.6 M sodium acetate (pH 6.5). The fractions eluted at 0.4-0.5 M were pooled and used as a phosphodiesterase III enzyme fraction.
Specifically, a test compound and the phosphodiesterase III enzyme fraction were added to 0.4 ml of a reaction solution [40 mM tris(hydroxymethyl)aminomethane-hydrochloric acid buffer (pH=8.0), 5 mM magnesium chloride, 1 mM dithiothreitol, 0.1 μM [^3 H] cAMP]. This mixture was reacted at 30° C. for 10 minutes. After completion of the reaction, 5'-nuclease was added thereto so as to convert [^3 H] 5'-AMP, which was the reaction product with phosphodiesterase III, to [^3 H] adenosine. Then, the [^3 H] cAMP and [^3 H] adenosine present in the reaction mixture were separated with the aid of an anion exchanger.

endothelin receptors = assay: antagonism to endothelin receptors (statement in words, no subtype); format: binding
Description: as §1
as §2, with “The precipitate was suspended in solution A and used as a crude receptor membrane fraction, which was divided into portions and stored in a frozen state at -70° C. As a radioligand, 325 Bq of ^125 I-ET-1 (81.4 TBq/mmol; manufactured by DuPont-New England Nuclear, Boston, Mss., U.S.A) was placed in a test tube. Then, the crude receptor membrane fraction (20 μg as protein) and a test compound were added thereto.” left out, “The reaction was carried out in solution B [30 mM HEPES, 0.15 M NaCl, 5 mM MgCl2, 0.5 mg/ml bacitracin, 1 mg/ml bovine serum albumin, pH 7.0) at 25° C. for 120 minutes.” left out

SMILES | pIC50 (ETA receptor) | pIC50 (ETB receptor) | pIC50 (phosphodiesterase III) | inhibitory effect on phosphodiesterase III (phosphodiesterase III) | antagonism to endothelin receptors (endothelin receptors)
COc1cccc(Cn2nc(C(=O)O)c3c2-c2ccc(OCc4cncnc4)cc2CC3)c1 [Example 2, 4,5-dihydro-1-(3-methoxybenzyl)-7-(5-pyrimidinylmethoxy)-[1H]-benz[g]indazole-3-carboxylic acid] | 7.51 | 6.85 |  |  | 
CCOc1cccc(Cn2nc(C(=O)O)c3c2-c2ccc(OCc4cncnc4)cc2CC3)c1 [Example 14] | 7.77 | 6.94 |  |  | 
CCOc1cccc(C(CC)n2nc(C(=O)O)c3c2-c2ccc(OCc4cncnc4)cc2CC3)c1 (stereo not drawn) [Example 34, 4,5-dihydro-1-(3-ethoxy-α-ethylbenzyl)-7-(5-pyrimidinylmethoxy)-[1H]-benz[g]indazole-3-carboxylic acid] | 8.35 | 6.82 | 7.12 | inhibitory effect on phosphodiesterase III | excellent antagonism to endothelin receptors
CCOCC(c1cccc(OCC)c1)n1nc(C(=O)O)c2c1-c1ccc(OCc3cncnc3)cc1CC2 (stereo not drawn) [Example 41, 4,5-dihydro-1-(3-ethoxy-α-ethoxymethyl-benzyl)-7-(5-pyrimidinylmethoxy)-[1H]-benz[g]indazole-3-carboxylic acid] | 8.13 | 7.04 |  |  | 
CCOc1cccc(C(c2ccccn2)n2nc(C(=O)O)c3c2-c2ccc(OCc4cncnc4)cc2CC3)c1 (stereo not shown) [Example 70] | 8.60 | 7.95 | 6.24 | inhibitory effect on phosphodiesterase III | excellent antagonism to endothelin receptors
